Like-named read-outs stand apart in the source and are kept apart here. Marks after values point to notes of the source that are not given here.
What was measured:
[1] = Excretion after gastric lavage; type: in vivo, rats
FLT3 = FLT3 (Homo sapiens, UniProt P36888); experiment: Tyrosine kinase inhibition; type: biochemical
Single-dose toxicity = type: in vivo, Beagle dogs; details: single oral dose 500 and 1000 mg/kg
Method: mg/kg. The maximum tolerated dose (MTD) was 500 mg/kg. Gastrointestinal, hepatic, and immune system toxicity may have contributed to the rat deaths.
2.2. Dose expansion phase
[…] To investigate the efficacy of HA121- 28 tablets in patients with advanced solid tumors.
This study is a single- arm, open- label, dose-escalation, and dose-expansion phase 1 clinical studywith single and multiple dosing.

8305C cells = experiment: Tumor cell proliferation in vitro; type: cell-based
[2] = tested on: arterial ring angiogenesis; experiment: Rat arterial ring angiogenesis
[3] = 28-day repeated dose toxicity; type: in vivo, SD rats
[4] = tested on: human esophageal cancer ECA-109 tumors; experiment: ECA-109 tumors in nude mice; type: in vivo
[5] = Phase 1 clinical pharmacokinetics in plasma; type: in vivo, human; details: for AUC0-24, Mean (CV%) / AUC0-t, Mean (CV%) / CLz/F, Mean (CV%) / Cmax, Mean (CV%) / Tmax, median [Min-Max] / Vz/F, Mean (CV%) / t1/2z, Mean (CV%): Single dose; for AUC0-24,ss, Mean (CV%) / Cmax,ss, Mean (CV%) / Tmax,ss, median [Min-Max]: Steady State
EGFR = EGFR (Homo sapiens, UniProt P00533); experiment: Tyrosine kinase inhibition; type: biochemical
CFPAC-1 cells = experiment: Tumor cell proliferation in vitro; type: cell-based
ABL1 = ABL1 (Homo sapiens, UniProt P00519); experiment: Tyrosine kinase inhibition; type: biochemical
matrigel angiogenesis = type: in vivo, mouse; details: induced by VEGF and FGF
ALK1 = ALK1 (Homo sapiens, UniProt P37023); experiment: Tyrosine kinase inhibition; type: biochemical
Chain of ALK1 (P37023 142-503 limits assumed): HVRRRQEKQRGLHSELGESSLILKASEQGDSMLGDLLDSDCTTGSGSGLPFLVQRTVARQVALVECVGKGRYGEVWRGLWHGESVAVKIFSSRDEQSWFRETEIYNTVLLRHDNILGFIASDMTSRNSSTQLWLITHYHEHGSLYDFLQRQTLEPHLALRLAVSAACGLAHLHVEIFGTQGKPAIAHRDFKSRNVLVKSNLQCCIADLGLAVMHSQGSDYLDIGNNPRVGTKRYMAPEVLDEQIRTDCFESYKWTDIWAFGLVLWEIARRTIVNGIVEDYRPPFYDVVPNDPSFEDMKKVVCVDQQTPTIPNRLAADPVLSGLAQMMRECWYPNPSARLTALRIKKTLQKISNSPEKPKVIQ

SGC-7901 cells = experiment: Tumor cell proliferation in vitro; type: cell-based, human; details: SGC7901
BLK = BLK (Homo sapiens, UniProt P51451); experiment: Tyrosine kinase inhibition; type: biochemical
Chain of BLK (P51451 whole entry): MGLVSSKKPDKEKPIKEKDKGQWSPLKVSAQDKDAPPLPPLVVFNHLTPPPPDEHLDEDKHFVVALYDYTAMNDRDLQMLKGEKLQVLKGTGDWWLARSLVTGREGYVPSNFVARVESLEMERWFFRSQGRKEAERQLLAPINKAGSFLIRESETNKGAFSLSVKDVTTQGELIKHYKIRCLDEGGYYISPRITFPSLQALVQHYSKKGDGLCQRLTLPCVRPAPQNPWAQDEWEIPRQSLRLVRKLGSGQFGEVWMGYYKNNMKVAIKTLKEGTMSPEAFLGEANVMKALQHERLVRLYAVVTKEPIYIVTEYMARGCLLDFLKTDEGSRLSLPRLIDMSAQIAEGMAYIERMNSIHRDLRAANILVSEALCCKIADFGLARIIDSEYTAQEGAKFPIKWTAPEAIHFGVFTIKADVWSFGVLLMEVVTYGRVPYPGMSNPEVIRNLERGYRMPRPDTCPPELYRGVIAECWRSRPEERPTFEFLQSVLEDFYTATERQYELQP

HUVEC cells = details: 50 ng/mL VEGF165
HER-2 = HER-2 (Homo sapiens, UniProt P04626); experiment: Tyrosine kinase inhibition; type: biochemical; details: read-out: IC50, HER2
Chain of HER-2 (P04626 23-1255): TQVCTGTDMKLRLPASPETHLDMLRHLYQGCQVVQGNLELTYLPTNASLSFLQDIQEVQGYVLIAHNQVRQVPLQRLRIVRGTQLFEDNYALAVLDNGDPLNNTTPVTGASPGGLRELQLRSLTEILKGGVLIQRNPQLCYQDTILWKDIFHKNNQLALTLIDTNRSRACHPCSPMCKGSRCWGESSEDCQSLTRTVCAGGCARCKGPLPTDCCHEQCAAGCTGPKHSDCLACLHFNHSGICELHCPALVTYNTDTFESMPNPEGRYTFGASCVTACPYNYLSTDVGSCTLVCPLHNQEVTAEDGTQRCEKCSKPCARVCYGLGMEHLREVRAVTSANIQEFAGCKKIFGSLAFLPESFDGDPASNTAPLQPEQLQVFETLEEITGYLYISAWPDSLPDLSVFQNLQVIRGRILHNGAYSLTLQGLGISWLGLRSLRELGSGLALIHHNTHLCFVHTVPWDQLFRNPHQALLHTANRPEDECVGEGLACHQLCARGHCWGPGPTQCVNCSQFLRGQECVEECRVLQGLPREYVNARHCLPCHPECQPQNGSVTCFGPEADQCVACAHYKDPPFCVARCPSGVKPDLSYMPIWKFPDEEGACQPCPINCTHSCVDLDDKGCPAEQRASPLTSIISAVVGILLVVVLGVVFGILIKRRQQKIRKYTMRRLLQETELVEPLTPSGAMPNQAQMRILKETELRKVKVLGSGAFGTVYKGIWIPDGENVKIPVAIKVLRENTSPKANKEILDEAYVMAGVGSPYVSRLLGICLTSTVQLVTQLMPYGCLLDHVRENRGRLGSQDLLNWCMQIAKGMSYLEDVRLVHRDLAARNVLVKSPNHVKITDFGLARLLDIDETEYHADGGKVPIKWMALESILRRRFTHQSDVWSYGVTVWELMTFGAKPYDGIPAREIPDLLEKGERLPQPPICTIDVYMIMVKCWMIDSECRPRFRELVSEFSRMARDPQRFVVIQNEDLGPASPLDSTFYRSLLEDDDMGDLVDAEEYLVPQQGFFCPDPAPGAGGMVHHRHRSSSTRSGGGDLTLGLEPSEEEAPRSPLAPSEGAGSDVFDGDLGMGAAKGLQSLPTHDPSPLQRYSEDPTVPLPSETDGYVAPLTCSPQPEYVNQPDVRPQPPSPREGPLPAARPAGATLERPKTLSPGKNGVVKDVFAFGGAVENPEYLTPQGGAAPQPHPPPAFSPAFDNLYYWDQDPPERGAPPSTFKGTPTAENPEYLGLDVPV

FMS = FMS (Homo sapiens, UniProt P07333); experiment: Tyrosine kinase inhibition; type: biochemical
Plasma protein binding = type: in vitro ADME; details: humans
AXL = AXL (Homo sapiens, UniProt P30530); experiment: Tyrosine kinase inhibition; type: biochemical
Chain of AXL (P30530 26-894): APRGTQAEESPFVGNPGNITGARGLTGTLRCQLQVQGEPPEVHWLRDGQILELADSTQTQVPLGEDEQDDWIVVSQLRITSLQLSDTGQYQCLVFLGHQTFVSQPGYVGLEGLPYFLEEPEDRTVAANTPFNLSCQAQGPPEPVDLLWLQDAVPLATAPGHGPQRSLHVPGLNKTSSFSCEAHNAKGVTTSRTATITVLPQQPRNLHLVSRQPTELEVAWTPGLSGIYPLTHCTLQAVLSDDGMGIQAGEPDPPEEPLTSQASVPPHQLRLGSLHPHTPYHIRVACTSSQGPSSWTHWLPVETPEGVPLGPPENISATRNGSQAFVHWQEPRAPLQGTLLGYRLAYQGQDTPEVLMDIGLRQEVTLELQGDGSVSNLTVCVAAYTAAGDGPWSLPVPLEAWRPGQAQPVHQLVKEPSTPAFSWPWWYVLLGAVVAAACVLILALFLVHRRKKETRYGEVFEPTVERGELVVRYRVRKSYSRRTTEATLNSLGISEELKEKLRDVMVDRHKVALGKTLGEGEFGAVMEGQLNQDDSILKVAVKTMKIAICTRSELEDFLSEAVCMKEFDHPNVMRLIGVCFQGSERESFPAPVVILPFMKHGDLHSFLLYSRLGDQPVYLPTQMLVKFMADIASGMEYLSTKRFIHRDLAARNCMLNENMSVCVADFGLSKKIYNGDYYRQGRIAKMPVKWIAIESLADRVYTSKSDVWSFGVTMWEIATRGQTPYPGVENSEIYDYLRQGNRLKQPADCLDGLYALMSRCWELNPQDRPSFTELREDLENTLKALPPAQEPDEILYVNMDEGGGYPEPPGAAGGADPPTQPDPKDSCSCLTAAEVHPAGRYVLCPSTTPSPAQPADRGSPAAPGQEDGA

FGFR1-3 = type: biochemical
SRC = SRC (Homo sapiens, UniProt P12931); experiment: Tyrosine kinase inhibition; type: biochemical
Chain of SRC (P12931 whole entry): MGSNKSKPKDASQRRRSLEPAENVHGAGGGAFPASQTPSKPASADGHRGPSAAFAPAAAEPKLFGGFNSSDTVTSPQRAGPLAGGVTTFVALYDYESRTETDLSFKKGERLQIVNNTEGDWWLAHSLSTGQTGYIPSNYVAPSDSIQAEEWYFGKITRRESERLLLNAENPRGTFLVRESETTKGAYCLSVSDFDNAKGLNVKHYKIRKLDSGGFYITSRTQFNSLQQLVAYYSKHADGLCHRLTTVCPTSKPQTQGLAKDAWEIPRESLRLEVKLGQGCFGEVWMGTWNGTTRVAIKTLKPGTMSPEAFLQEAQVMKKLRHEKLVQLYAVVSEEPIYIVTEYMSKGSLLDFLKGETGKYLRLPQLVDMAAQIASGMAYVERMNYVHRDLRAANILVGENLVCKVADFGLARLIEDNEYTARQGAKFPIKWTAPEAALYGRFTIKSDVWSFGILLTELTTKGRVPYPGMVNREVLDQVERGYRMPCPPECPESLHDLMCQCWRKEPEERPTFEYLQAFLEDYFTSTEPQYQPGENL

Chain of FLT3 (P36888 27-993): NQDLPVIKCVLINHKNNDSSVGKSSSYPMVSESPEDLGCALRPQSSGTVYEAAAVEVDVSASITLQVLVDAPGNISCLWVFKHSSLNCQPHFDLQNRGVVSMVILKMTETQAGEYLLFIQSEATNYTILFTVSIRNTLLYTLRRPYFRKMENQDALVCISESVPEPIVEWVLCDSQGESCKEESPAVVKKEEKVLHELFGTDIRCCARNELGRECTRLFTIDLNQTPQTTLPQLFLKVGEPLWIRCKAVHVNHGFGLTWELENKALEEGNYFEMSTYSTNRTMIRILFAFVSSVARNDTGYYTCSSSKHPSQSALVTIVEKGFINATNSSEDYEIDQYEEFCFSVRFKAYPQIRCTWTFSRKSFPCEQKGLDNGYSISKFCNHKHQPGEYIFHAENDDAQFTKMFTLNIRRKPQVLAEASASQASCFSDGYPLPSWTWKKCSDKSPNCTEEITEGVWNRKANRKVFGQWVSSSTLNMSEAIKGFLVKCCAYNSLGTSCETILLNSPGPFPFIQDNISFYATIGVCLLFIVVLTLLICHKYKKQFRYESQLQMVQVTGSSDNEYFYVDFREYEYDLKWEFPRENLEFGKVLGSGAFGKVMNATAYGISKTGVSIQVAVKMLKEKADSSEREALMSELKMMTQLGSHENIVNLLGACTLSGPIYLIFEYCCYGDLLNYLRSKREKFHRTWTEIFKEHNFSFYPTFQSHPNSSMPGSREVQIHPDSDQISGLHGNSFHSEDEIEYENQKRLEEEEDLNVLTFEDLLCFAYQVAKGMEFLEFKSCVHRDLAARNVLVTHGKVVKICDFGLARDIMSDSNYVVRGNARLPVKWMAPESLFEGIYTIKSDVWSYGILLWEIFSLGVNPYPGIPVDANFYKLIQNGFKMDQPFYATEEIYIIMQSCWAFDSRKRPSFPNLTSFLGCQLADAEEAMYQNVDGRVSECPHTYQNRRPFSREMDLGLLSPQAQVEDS

COc1cc2c(Nc3ccc(Br)cc3F)ncnc2cc1OCCCCN(C)C.Cl.Cl [HA121-28, N-(4-bromo-2-fluorophenyl)-7-(4-(dimethylamino)butoxy)-6-methoxy quinazolin-4-amine dihydrochloride]
excretion in original form ([1]; bile): 3.91%
excretion in original form ([1]; feces): 27.5%
excretion in original form ([1]; urine): 2.18%
total excretion rate ([1]; urine and feces): 29.7%
IC50 (FLT3): 556 nM
MTD (Single-dose toxicity): 1000 mg/kg
IC50 (8305C cells): 623 ± 80.3 nM
rat arterial ring angiogenesis [2]: able to inhibit
no observed adverse effect level (NOAEL) ([3]; 28-day, SD rats): 15 mg/kg
highest non-severely toxic dose (HNSTD) ([3]; oral gavage, four consecutive weeks): 15 mg/kg
RTV ±SD ([4]; 12.5 mg/kg): 7.0±2.8
T/C ([4]; 12.5 mg/kg): 68.6%
Terminal Tumor Volume ([4]; 12.5 mg/kg): 1,684.6±1,034.3 mm^3
RTV ±SD ([4]; 25 mg/kg): 3.1±1.6
T/C ([4]; 25 mg/kg): 29.8%
Terminal Tumor Volume ([4]; 25 mg/kg): 693.5±538.6*^▲ mm^3
RTV ±SD ([4]; 50 mg/kg): 2.2±0.4
T/C ([4]; 50 mg/kg): 21.6%
Terminal Tumor Volume ([4]; 50 mg/kg): 491.8±77.4** mm^3
AUC0-24, Mean (CV%) ([5]; 25 mg (N=1)): 237.1 (-) h*ng/mL
AUC0-t, Mean (CV%) ([5]; 25 mg (N=1)): 906.8 (-) h*ng/mL
CLz/F, Mean (CV%) ([5]; 25 mg (N=1)): 18.5 (-) L/h
Cmax, Mean (CV%) ([5]; 25 mg (N=1)): 15.6 (-) ng/mL
Tmax, median [Min-Max] ([5]; 25 mg (N=1)): 4 [4,4] h
Vz/F, Mean (CV%) ([5]; 25 mg (N=1)): 2971.7 (-) L
t1/2z, Mean (CV%) ([5]; 25 mg (N=1)): 111.2 (-) h
AUC0-24, Mean (CV%) ([5]; 50 mg (N=1)): 283.0 (-) h*ng/mL
AUC0-t, Mean (CV%) ([5]; 50 mg (N=1)): 1645.1 (-) h*ng/mL
CLz/F, Mean (CV%) ([5]; 50 mg (N=1)): 19.5 (-) L/h
Cmax, Mean (CV%) ([5]; 50 mg (N=1)): 15.6 (-) ng/mL
Tmax, median [Min-Max] ([5]; 50 mg (N=1)): 24 [24,24] h
Vz/F, Mean (CV%) ([5]; 50 mg (N=1)): 3137.7 (-) L
t1/2z, Mean (CV%) ([5]; 50 mg (N=1)): 111.6 (-) h
AUC0-24, Mean (CV%) ([5]; 100 mg (N=4)): 725.9 (306.5) h*ng/mL
AUC0-t, Mean (CV%) ([5]; 100 mg (N=4)): 3460.0 (1126.6) h*ng/mL
CLz/F, Mean (CV%) ([5]; 100 mg (N=4)): 18.8 (4.8) L/h
Cmax, Mean (CV%) ([5]; 100 mg (N=4)): 46.4 (27.0) ng/mL
Tmax, median [Min-Max] ([5]; 100 mg (N=4)): 6 [4-24] h
Vz/F, Mean (CV%) ([5]; 100 mg (N=4)): 2303.3 (37.5) L
t1/2z, Mean (CV%) ([5]; 100 mg (N=4)): 89.1 (23.8) h
AUC0-24, Mean (CV%) ([5]; 200 mg (N=4)): 1884.6 (514.6) h*ng/mL
AUC0-t, Mean (CV%) ([5]; 200 mg (N=4)): 7763.0 (2539.2) h*ng/mL
CLz/F, Mean (CV%) ([5]; 200 mg (N=4)): 21.6 (7.0) L/h
Cmax, Mean (CV%) ([5]; 200 mg (N=4)): 115.5 (32.7) ng/mL
Tmax, median [Min-Max] ([5]; 200 mg (N=4)): 8 [8-10] h
Vz/F, Mean (CV%) ([5]; 200 mg (N=4)): 2627.1 (1416.0) L
t1/2z, Mean (CV%) ([5]; 200 mg (N=4)): 80.7 (15.3) h
AUC0-24, Mean (CV%) ([5]; 300 mg (N=4)): 3037.9 (854.0) h*ng/mL
AUC0-t, Mean (CV%) ([5]; 300 mg (N=4)): 11276.6 (2463.8) h*ng/mL
CLz/F, Mean (CV%) ([5]; 300 mg (N=4)): 19.1 (3.8) L/h
Cmax, Mean (CV%) ([5]; 300 mg (N=4)): 193.0 (70.1) ng/mL
Tmax, median [Min-Max] ([5]; 300 mg (N=4)): 8 [2-8] h
Vz/F, Mean (CV%) ([5]; 300 mg (N=4)): 2307.1 (724.2) L
t1/2z, Mean (CV%) ([5]; 300 mg (N=4)): 83.1 (16.6) h
AUC0-24, Mean (CV%) ([5]; 450 mg (N=7)): 6271.3 (2275.9) h*ng/mL
AUC0-t, Mean (CV%) ([5]; 450 mg (N=7)): 20218.4 (7301.9) h*ng/mL
CLz/F, Mean (CV%) ([5]; 450 mg (N=7)): 16.2 (6.6) L/h
Cmax, Mean (CV%) ([5]; 450 mg (N=7)): 374.7 (140.6) ng/mL
Tmax, median [Min-Max] ([5]; 450 mg (N=7)): 8 [4-8] h
Vz/F, Mean (CV%) ([5]; 450 mg (N=7)): 2009.5 (706.2) L
t1/2z, Mean (CV%) ([5]; 450 mg (N=7)): 87.6 (11.7) h
AUC0-24, Mean (CV%) ([5]; 600 mg (N=5)): 8403.6 (4593.9) h*ng/mL
AUC0-t, Mean (CV%) ([5]; 600 mg (N=5)): 26818.4 (14650.1) h*ng/mL
CLz/F, Mean (CV%) ([5]; 600 mg (N=5)): 19.7 (8.1) L/h
Cmax, Mean (CV%) ([5]; 600 mg (N=5)): 500.0 (224.3) ng/mL
Tmax, median [Min-Max] ([5]; 600 mg (N=5)): 8 [4-8] h
Vz/F, Mean (CV%) ([5]; 600 mg (N=5)): 2163.4 (719.0) L
t1/2z, Mean (CV%) ([5]; 600 mg (N=5)): 80.8 (19.4) h
AUC0-24, Mean (CV%) ([5]; 800 mg (N=3)): 9721.8 (2598.4) h*ng/mL
AUC0-t, Mean (CV%) ([5]; 800 mg (N=3)): 33030.6 (10820.6) h*ng/mL
CLz/F, Mean (CV%) ([5]; 800 mg (N=3)): 19.9 (9.2) L/h
Cmax, Mean (CV%) ([5]; 800 mg (N=3)): 610.0 (200.1) ng/mL
Tmax, median [Min-Max] ([5]; 800 mg (N=3)): 8 [4-8] h
Vz/F, Mean (CV%) ([5]; 800 mg (N=3)): 2001.6 (613.2) L
t1/2z, Mean (CV%) ([5]; 800 mg (N=3)): 74.1 (24.6) h
AUC0-24,ss, Mean (CV%) ([5]; 25 mg (N=1)): 1629.1 (-) h*ng/mL
Cmax,ss, Mean (CV%) ([5]; 25 mg (N=1)): 77.2 (-) ng/mL
Tmax,ss, median [Min-Max] ([5]; 25 mg (N=1)): 2 [2,2] h
AUC0-24,ss, Mean (CV%) ([5]; 50 mg (N=1)): 2728.6 (-) h*ng/mL
Cmax,ss, Mean (CV%) ([5]; 50 mg (N=1)): 122.0 (-) ng/mL
Tmax,ss, median [Min-Max] ([5]; 50 mg (N=1)): 4 [4,4] h
AUC0-24,ss, Mean (CV%) ([5]; 100 mg (N=4)): 4785.0 (1808.2) h*ng/mL
Cmax,ss, Mean (CV%) ([5]; 100 mg (N=4)): 219.0 (75.2) ng/mL
Tmax,ss, median [Min-Max] ([5]; 100 mg (N=4)): 8 [4-8] h
AUC0-24,ss, Mean (CV%) ([5]; 200 mg (N=4)): 11332.7 (4944.0) h*ng/mL
Cmax,ss, Mean (CV%) ([5]; 200 mg (N=4)): 550.0 (229.2) ng/mL
Tmax,ss, median [Min-Max] ([5]; 200 mg (N=4)): 8 [8-8] h
AUC0-24,ss, Mean (CV%) ([5]; 300 mg (N=4)): 12969.9 (1048.1) h*ng/mL
Cmax,ss, Mean (CV%) ([5]; 300 mg (N=4)): 635.3 (30.1) ng/mL
Tmax,ss, median [Min-Max] ([5]; 300 mg (N=4)): 4 [4-4] h
AUC0-24,ss, Mean (CV%) ([5]; 450 mg (N=7)): 18460.0 (3291.4) h*ng/mL
Cmax,ss, Mean (CV%) ([5]; 450 mg (N=7)): 945.8 (189.0) ng/mL
Tmax,ss, median [Min-Max] ([5]; 450 mg (N=7)): 6 [4-8] h
AUC0-24,ss, Mean (CV%) ([5]; 600 mg (N=5)): 27965.4 (13872.8) h*ng/mL
Cmax,ss, Mean (CV%) ([5]; 600 mg (N=5)): 1453.0 (825.0) ng/mL
Tmax,ss, median [Min-Max] ([5]; 600 mg (N=5)): 4 [4-8] h
AUC0-24,ss, Mean (CV%) ([5]; 800 mg (N=3)): 23180.1 (3336.5) h*ng/mL
Cmax,ss, Mean (CV%) ([5]; 800 mg (N=3)): 1067.0 (216.4) ng/mL
Tmax,ss, median [Min-Max] ([5]; 800 mg (N=3)): 6 [4-8] h
time to steady state ([5]; multiple dosing): two
IC50 (EGFR): 46.6 nM
IC50 (CFPAC-1 cells): 207 ± 38.3 nM
IC50 (ABL1): 153 nM
mouse matrigel angiogenesis (matrigel angiogenesis): able to inhibit
IC50 (ALK1): 2590 nM
IC50 (SGC-7901 cells): 4.36 ± 0.338 µM
IC50 (BLK): 201 nM
IC50 (HUVEC cells): 65.4 nM
IC50 (HER-2): 42 nM
IC50 (FMS): 2910 nM
plasma protein binding rate (Plasma protein binding): 90.1±1.05%
IC50 (AXL): 589 nM
IC50 (FGFR1-3; FGFR1, read-out: IC50, FGFR1): 32.3 nM
IC50 (FGFR1-3; FGFR2, read-out: IC50, FGFR2): 20.4 nM
IC50 (FGFR1-3; FGFR3, read-out: IC50, FGFR3): 23.1 nM
IC50 (SRC): 65.8 nM

— paper PMC11868595, “Safety, pharmacokinetics and efficacy of HA121-28 in patients with advanced solid tumors and RET fusion-positive non-small-cell lung cancer: a multicenter, open-label, single-arm phase 1/2 trial” (Signal Transduction and Targeted Therapy, 2025)
